Patent US20240150360A1 (THE REGENTS OF THE UNIVERSITY OF MICHIGAN, priority 2021, published 2024)

Tests used:
[1] = molecular target: T1, CBP (Homo sapiens, UniProt Q92793); test: CBP degradation in 22Rv1 cells (5 h); assay type: cell-based; conditions: 22Rv1 cells, 5 h; for Dmax: 22Rv1, 5 h, read-out: CBP Degradation (22Rv1, 5 h) DCmax
T1 construct: endogenous in cells; host or cells: 22Rv1 (ATCC CRL-2505) human prostate cancer cells
Source text: (§1) Biological Assays. […] Cells with 3-8 passages after purchase were used in experiments.

[2] = molecular target: T2, P300 (Homo sapiens, UniProt Q09472); test: P300 degradation in 22Rv1 cells (5 h); assay type: cell-based; conditions: 22Rv1 cells, 5 h; for Dmax: read-out: P300 Degradation (22Rv1, 5 h) DCmax
T2 construct: endogenous in cells; host or cells: 22Rv1 (ATCC CRL-2505) human prostate cancer cells
Source text: as §1

[3] = test system: 22Rv1 cells; test: Cell growth inhibition assay (CellTiter-Glo) in 22Rv1; assay type: cell-based, human; conditions: Homo sapiens, 22Rv1, 96 h, 22Rv1 cells, 96 h incubation; read-out: Cell Growth Inhibition (IC50) 22Rv1
How it was run: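 22Rv1 prostate cancer cells (passages 3-8, DMEM with 10% FBS) were seeded at 4000 cells/well with compound, 3-fold dilutions from 10 μM final. After 96 h at 37° C and 5% CO2, growth was read by CellTiter-Glo 2.0 luminescence.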

[4] = test system: HL60; test: Cell growth inhibition in HL60; assay type: cell-based; conditions: Homo sapiens, HL-60, HL60 cells; read-out: Cell Growth Inhibition (IC50) HL60

T1 sequence (Q92793 whole entry): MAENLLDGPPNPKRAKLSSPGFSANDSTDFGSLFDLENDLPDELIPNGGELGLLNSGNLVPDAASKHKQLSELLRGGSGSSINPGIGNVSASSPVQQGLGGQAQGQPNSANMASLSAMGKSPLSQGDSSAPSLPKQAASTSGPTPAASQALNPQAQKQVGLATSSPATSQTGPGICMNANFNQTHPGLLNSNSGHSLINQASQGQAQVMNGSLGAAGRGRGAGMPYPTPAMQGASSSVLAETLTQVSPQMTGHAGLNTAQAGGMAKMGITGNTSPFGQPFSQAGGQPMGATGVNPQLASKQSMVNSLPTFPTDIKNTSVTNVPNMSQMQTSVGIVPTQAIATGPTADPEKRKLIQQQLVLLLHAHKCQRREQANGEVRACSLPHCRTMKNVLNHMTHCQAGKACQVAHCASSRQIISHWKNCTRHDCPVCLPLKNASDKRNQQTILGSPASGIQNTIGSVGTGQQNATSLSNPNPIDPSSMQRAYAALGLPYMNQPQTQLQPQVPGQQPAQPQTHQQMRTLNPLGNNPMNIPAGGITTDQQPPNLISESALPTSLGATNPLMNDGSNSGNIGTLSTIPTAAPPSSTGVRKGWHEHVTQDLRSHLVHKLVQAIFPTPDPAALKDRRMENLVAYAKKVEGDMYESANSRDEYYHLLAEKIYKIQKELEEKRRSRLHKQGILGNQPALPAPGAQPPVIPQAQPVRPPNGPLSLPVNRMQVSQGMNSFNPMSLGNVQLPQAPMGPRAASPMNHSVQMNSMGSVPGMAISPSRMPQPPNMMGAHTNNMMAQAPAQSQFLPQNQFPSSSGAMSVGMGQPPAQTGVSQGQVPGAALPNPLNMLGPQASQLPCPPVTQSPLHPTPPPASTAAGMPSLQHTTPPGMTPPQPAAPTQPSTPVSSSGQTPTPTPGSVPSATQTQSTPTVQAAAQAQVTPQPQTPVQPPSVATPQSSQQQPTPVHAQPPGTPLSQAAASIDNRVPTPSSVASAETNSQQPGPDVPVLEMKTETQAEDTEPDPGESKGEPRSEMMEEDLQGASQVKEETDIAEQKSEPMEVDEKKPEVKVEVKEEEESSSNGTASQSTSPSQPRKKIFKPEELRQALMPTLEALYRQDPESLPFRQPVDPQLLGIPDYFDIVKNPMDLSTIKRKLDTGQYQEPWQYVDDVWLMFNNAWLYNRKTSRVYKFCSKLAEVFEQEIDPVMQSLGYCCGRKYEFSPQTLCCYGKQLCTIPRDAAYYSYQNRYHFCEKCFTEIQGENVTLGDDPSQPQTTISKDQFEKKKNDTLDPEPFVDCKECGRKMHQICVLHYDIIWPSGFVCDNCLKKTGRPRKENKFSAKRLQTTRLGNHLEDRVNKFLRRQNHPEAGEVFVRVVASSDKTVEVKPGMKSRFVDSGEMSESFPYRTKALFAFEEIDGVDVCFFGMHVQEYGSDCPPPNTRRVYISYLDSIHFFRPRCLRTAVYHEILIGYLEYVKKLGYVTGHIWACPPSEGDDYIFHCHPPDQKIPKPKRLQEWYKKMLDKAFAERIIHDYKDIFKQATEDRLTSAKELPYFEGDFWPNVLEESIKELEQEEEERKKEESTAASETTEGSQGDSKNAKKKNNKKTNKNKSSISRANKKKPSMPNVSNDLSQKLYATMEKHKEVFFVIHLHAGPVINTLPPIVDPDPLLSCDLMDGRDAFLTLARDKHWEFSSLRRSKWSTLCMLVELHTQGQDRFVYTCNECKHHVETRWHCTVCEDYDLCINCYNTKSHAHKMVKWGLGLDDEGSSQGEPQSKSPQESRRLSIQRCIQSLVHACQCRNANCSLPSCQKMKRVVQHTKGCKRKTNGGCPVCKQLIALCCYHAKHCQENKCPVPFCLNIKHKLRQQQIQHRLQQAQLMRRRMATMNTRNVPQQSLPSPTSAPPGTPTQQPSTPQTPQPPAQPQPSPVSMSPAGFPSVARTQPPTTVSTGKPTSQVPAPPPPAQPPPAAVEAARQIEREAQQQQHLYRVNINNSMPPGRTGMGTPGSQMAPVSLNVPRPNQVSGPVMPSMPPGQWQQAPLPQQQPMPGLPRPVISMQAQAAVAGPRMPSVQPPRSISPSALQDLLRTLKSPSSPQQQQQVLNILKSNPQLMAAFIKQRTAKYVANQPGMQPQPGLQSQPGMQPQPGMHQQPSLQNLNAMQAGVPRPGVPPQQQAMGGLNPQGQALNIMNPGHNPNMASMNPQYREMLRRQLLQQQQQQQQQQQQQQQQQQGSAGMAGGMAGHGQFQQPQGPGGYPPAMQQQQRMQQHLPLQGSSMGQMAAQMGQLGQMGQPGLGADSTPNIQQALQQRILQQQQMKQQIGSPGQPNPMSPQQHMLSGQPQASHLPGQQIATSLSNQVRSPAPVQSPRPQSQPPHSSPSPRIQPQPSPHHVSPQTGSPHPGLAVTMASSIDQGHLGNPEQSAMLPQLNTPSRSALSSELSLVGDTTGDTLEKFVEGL
T2 sequence (Q09472 whole entry): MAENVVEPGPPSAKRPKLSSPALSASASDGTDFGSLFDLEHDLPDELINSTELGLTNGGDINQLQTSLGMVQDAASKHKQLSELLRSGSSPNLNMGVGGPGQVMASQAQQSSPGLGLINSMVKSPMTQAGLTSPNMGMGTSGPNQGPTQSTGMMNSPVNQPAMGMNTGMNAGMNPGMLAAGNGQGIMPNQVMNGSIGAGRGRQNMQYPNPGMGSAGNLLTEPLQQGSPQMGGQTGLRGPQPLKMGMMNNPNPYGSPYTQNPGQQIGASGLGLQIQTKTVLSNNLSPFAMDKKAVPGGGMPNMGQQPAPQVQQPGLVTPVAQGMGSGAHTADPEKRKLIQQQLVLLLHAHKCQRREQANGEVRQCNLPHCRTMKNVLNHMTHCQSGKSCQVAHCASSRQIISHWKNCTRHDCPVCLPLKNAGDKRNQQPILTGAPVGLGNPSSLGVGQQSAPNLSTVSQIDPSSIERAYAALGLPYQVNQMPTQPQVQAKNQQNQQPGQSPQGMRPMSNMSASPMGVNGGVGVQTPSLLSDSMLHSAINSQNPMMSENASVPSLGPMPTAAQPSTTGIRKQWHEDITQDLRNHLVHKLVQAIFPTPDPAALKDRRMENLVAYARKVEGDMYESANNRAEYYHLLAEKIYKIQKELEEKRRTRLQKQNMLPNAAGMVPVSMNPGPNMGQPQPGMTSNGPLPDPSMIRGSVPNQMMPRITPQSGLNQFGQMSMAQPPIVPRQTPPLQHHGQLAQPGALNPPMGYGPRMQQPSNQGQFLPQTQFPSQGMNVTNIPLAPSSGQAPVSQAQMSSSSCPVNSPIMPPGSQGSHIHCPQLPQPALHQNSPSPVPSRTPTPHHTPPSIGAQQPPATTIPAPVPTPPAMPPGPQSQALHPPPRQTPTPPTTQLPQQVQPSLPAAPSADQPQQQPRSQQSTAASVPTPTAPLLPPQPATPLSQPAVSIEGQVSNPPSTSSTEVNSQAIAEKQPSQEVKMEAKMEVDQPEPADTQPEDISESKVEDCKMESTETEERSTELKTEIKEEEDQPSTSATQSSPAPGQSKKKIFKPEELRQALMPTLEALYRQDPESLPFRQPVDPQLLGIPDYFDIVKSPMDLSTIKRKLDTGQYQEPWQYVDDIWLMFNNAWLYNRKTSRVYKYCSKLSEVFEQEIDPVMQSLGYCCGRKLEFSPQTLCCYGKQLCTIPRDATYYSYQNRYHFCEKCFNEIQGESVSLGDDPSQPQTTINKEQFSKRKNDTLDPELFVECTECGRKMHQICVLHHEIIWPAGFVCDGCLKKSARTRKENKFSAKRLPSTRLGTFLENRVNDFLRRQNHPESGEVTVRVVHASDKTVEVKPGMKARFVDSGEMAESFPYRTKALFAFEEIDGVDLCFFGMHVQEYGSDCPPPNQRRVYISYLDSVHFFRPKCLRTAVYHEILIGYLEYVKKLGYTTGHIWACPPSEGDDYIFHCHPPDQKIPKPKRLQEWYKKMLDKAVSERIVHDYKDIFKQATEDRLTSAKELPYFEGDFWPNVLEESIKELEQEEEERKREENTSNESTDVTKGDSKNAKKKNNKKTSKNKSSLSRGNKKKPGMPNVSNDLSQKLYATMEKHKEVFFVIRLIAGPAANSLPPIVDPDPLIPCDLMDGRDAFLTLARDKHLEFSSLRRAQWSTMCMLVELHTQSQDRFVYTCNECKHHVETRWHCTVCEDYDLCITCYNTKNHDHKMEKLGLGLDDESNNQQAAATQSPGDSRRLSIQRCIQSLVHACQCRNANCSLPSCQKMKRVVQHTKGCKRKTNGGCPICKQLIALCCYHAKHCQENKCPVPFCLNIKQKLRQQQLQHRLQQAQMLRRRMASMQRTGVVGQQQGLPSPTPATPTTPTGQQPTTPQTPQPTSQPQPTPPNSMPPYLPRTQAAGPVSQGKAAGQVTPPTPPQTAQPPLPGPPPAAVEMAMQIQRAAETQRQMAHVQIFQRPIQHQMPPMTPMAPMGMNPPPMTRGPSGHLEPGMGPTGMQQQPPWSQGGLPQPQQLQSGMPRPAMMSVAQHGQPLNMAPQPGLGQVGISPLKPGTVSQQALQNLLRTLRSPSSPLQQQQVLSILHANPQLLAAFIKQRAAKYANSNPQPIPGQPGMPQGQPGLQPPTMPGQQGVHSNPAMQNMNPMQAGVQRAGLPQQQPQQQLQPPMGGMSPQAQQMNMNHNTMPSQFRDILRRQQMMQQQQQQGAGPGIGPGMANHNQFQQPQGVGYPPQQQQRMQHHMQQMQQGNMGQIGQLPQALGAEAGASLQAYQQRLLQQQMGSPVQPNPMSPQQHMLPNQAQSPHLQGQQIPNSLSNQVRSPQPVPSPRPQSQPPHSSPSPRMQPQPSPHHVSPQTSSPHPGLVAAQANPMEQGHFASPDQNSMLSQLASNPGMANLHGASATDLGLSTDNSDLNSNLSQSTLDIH

| Compound | Dmax [1] [%] | DC50 [1] [nM] | DC50 [2] [nM] | Dmax [2] [%] | IC50 [3] [nM] | IC50 [4] [nM] |
| --- | --- | --- | --- | --- | --- | --- |
| CC(=O)N1CCc2c(c(N3CCCc4cc(Cl)c(C(F)F)cc43)nn2C2CCN(C(=O)CN3Cc4cc5c(cc4C3)C(=O)N(C3CCC(=O)NC3=O)C5=O)CC2)C1 (stereo not drawn) [CP-017, 6-(2-(4-(5-acetyl-3-(6-chloro-7-(difluoromethyl)-3,4-dihydroquinolin-1(2H)-yl)-4,5,6,7-tetrahydro-1H-pyrazolo[4,3-c]pyridin-1-yl)piperidin-1-yl)-2-oxoethyl)-2-(2,6-dioxopiperidin-3-yl)-6,7-dihydropyrrolo[3,4-f]isoindole-1,3(2H,5H)-dione] | < 50 | > 1000 | > 1000 | < 50 | > 10000 | > 10000 |
| Cn1cc(-c2cc3c(cc2C(F)F)N(c2nn(C4CCN(C(=O)CN5Cc6cc7c(cc6C5)C(=O)N(C5CCC(=O)NC5=O)C7=O)CC4)c4c2CN(C(=O)C(F)F)CC4)CCC3)cn1 (stereo not drawn) [CP-056, 6-(2-(4-(5-(2,2-difluoroacetyl)-3-(7-(difluoromethyl)-6-(1-methyl-1H-pyrazol-4-yl)-3,4-dihydroquinolin-1(2H)-yl)-4,5,6,7-tetrahydro-1H-pyrazolo[4,3-c]pyridin-1-yl)piperidin-1-yl)-2-oxoethyl)-2-(2,6-dioxopiperidin-3-yl)-6,7-dihydropyrrolo[3,4-f]isoindole-1,3(2H,5H)-dione] | > 50 | < 1000 | > 1000 | < 50 | < 1000 | < 1000 |
| CC(=O)N1CCc2c(c(N3CCCc4cc(-c5cnn(C)c5)c(C(F)F)cc43)nn2C2CCN(CC3Cc4cc5c(cc4C3)C(=O)N(C3CCC(=O)NC3=O)C5=O)CC2)C1 (stereo not drawn) [CP-052, 6-((4-(5-acetyl-3-(7-(difluoromethyl)-6-(1-methyl-1H-pyrazol-4-yl)-3,4-dihydroquinolin-1(2H)-yl)-4,5,6,7-tetrahydro-1H-pyrazolo[4,3-c]pyridin-1-yl)piperidin-1-yl)methyl)-2-(2,6-dioxopiperidin-3-yl)-6,7-dihydrocyclopenta[f]ioindole-1,3(2H,5H)-dione] | > 70 | < 10 | < 10 | > 70 | < 100 | < 1000 |
| CC(=O)N1CCc2c(c(N3CCCc4cc(C5CCCCC5)c(C(F)F)cc43)nn2C2CCN(C(=O)CN3Cc4cc5c(cc4C3)C(=O)N(C3CCC(=O)NC3=O)C5=O)CC2)C1 (stereo not drawn) [CP-021, 6-(2-(4-(5-acetyl-3-(6-cyclohexyl-7-(difluoromethyl)-3,4-dihydroquinolin-1(2H)-yl)-4,5,6,7-tetrahydro-1H-pyrazolo[4,3-c]pyridin-1-yl)piperidin-1-yl)-2-oxoethyl)-2-(2,6-dioxopiperidin-3-yl)-6,7-dihydropyrrolo[3,4-f]isoindole-1,3(2H,5H)-dione] | > 90 | < 10 | < 10 | > 70 | < 1000 | < 100 |
| CC(=O)N1CCc2c(c(N3CCCc4cc(-c5ccc(F)cc5)c(C(F)F)cc43)nn2C2CCN(C(=O)CN3Cc4cc5c(cc4C3)C(=O)N(C3CCC(=O)NC3=O)C5=O)CC2)C1 (stereo not drawn) [CP-023, 6-(2-(4-(5-acetyl-3-(7-(difluoromethyl)-6-(4-fluorophenyl)-3,4-dihydroquinolin-1(2H)-yl)-4,5,6,7-tetrahydro-1H-pyrazolo[4,3-c]pyridin-1-yl)piperidin-1-yl)-2-oxoethyl)-2-(2,6-dioxopiperidin-3-yl)-6,7-dihydropyrrolo[3,4-f]isoindole-1,3(2H,5H)-dione] | > 90 | < 10 | < 10 | > 70 | < 1000 | < 100 |
| CC(=O)N1CCc2c(c(-c3cccc4ccncc34)nn2C2CCN(C(=O)CN3Cc4cc5c(cc4C3)C(=O)N(C3CCC(=O)NC3=O)C5=O)CC2)C1 (stereo not drawn) [CP-082, 6-(2-(4-(5-acetyl-3-(isoquinolin-8-yl)-4,5,6,7-tetrahydro-1H-pyrazolo[4,3-c]pyridin-1-yl)piperidin-1-yl)-2-oxoethyl)-2-(2,6-dioxopiperidin-3-yl)-6,7-dihydropyrrolo[3,4-f]isoindole-1,3(2H,5H)-dione] | < 50 | > 1000 | > 1000 | < 50 | > 10000 | > 10000 |
| Cc1noc(C)c1-c1ccc2c(c1)nc([C@@H]1CCCC(=O)N1c1ccc(F)c(F)c1)n2C1CCN(C(=O)CN2CCc3cc4c(cc3CC2)C(=O)N(C2CCC(=O)NC2=O)C4=O)CC1 (stereo partly drawn) [CP-064, 7-(2-(4-(2-((S)-1-(3,4-difluorophenyl)-6-oxopiperidin-2-yl)-5-(3,5-dimethylisoxazol-4-yl)-1H-benzo[d]imidazol-1-yl)piperidin-1-yl)-2-oxoethyl)-2-(2,6-dioxopiperidin-3-yl)-6,7,8,9-tetrahydroazepino[4,5-f]isoindole-1,3(2H,5H)-dione] | < 50 | > 1000 | > 1000 | < 50 | > 10000 | > 10000 |

Second part, the compound after the results:

| Dmax [1] [%] | DC50 [1] [nM] | DC50 [2] [nM] | Dmax [2] [%] | IC50 [3] [nM] | IC50 [4] [nM] | Compound |
| --- | --- | --- | --- | --- | --- | --- |
| > 90 | < 10 | < 10 | > 70 | < 1000 | < 100 | CCc1cc2c(cc1C(F)F)N(c1nn(C3CCN(C(=O)CN4Cc5cc6c(cc5C4)C(=O)N(C4CCC(=O)NC4=O)C6=O)CC3)c3c1CN(C(C)=O)CC3)CCC2 (stereo not drawn) [CP-012, 6-(2-(4-(5-acetyl-3-(7-(difluoromethyl)-6-ethyl-3,4-dihydroquinolin-1(2H)-yl)-4,5,6,7-tetrahydro-1H-pyrazolo[4,3-c]pyridin-1-yl)piperidin-1-yl)-2-oxoethyl)-2-(2,6-dioxopiperidin-3-yl)-6,7-dihydropyrrolo[3,4-f]isoindole-1,3(2H,5H)-dione] |
| < 50 | < 1000 | > 1000 | < 50 | > 10000 | < 10000 | Cn1cc(-c2cc3c(cc2C(F)F)N(c2nn(C4CCN(C(=O)CN5Cc6cc7c(cc6C5)C(=O)N(C5CCC(=O)NC5=O)C7=O)CC4)c4c2CN(CC(F)(F)F)CC4)CCC3)cn1 (stereo not drawn) |
| > 70 | < 10 | > 1000 | < 50 | > 10000 | > 10000 | CC(=O)N1Cc2c(N3CCCc4cc(-c5ccnn5C)c(C(F)F)cc43)nn(C3CCN(C(=O)CN4Cc5cc6c(cc5C4)C(=O)N(C4CCC(=O)NC4=O)C6=O)CC3)c2C(C)(C)C1 (stereo not drawn) [CP-085, 6-(2-(4-(5-acetyl-3-(7-(difluoromethyl)-6-(1-methyl-1H-pyrazol-5-yl)-3,4-dihydroquinolin-1(2H)-yl)-7,7-dimethyl-4,5,6,7-tetrahydro-1H-pyrazolo[4,3-c]pyridin-1-yl)piperidin-1-yl)-2-oxoethyl)-2-(2,6-dioxopiperidin-3-yl)-6,7-dihydropyrrolo[3,4-f]isoindole-1,3(2H,5H)-dione] |
| > 90 | < 10 | < 10 | > 90 | < 1000 | < 100 | CC(=O)N1CCc2c(c(N3CCCc4cc(-c5cnn(C)c5)c(C(F)F)cc43)nn2C[C@H]2CC[C@H](N3CCc4cc5c(cc4C3)C(=O)N(C3CCC(=O)NC3=O)C5=O)CC2)C1 (stereo partly drawn) [CP-041, 6-(4-((5-acetyl-3-(7-(difluoromethyl)-6-(1-methyl-1H-pyrazol-4-yl)-3,4-dihydroquinolin-1(2H)-yl)-4,5,6,7-tetrahydro-1H-pyrazolo[4,3-c]pyridin-1-yl)methyl)cyclohexyl)-2-(2,6-dioxopiperidin-3-yl)-5,6,7,8-tetrahydro-1H-pyrrolo[3,4-g]isoquinoline-1,3(2H)-dione] |
| < 50 | > 1000 | > 1000 | < 50 | > 10000 | < 10000 | Cn1cc(-c2cc3c(cc2C(F)F)N(c2nn(C4CCN(C(=O)CN5Cc6cc7c(cc6C5)C(=O)N(C5CCC(=O)NC5=O)C7=O)CC4)c4c2CN(CC(C)(F)F)CC4)CCC3)cn1 (stereo not drawn) [CP-059, 6-(2-(4-(3-(7-(difluoromethyl)-6-(1-methyl-1H-pyrazol-4-yl)-3,4-dihydroquinolin-1(2H)-yl)-5-(2,2-difluoropropyl)-4,5,6,7-tetrahydro-1H-pyrazolo[4,3-c]pyridin-1-yl)piperidin-1-yl)-2-oxoethyl)-2-(2,6-dioxopiperidin-3-yl)-6,7-dihydropyrrolo[3,4-f]isoindole-1,3(2H,5H)-dione] |
| < 50 | > 1000 | > 1000 | < 50 | > 10000 | > 10000 | Cc1noc(C)c1-c1ccc2c(c1)nc([C@@H]1CCCC(=O)N1c1ccc(F)c(F)c1)n2C1CCN(C(=O)CCCN2Cc3cc4c(cc3C2)C(=O)N(C2CCC(=O)NC2=O)C4=O)CC1 (stereo partly drawn) [CP-066, 6-(4-(4-(2-((S)-1-(3,4-difluorophenyl)-6-oxopiperidin-2-yl)-5-(3,5-dimethylisoxazol-4-yl)-1H-benzo[d]imidazol-1-yl)piperidin-1-yl)-4-oxobutyl)-2-(2,6-dioxopiperidin-3-yl)-6,7-dihydropyrrolo[3,4-f]isoindole-1,3(2H,5H)-dione] |
| < 50 | > 1000 | > 1000 | < 50 | > 10000 | > 10000 | CC(=O)N1CCc2c(ccc3c2CCCN3c2nn(C3CCN(C(=O)CN4Cc5cc6c(cc5C4)C(=O)N(C4CCC(=O)NC4=O)C6=O)CC3)c3c2CN(C(C)=O)CC3)C1 (stereo not drawn) [CP-081, 6-(2-(4-(5-acetyl-3-(3-acetyl-1,3,4,8,9,10-hexahydro-3,7-phenanthrolin-7(2H)-yl)-4,5,6,7-tetrahydro-1H-pyrazolo[4,3-c]pyridin-1-yl)piperidin-1-yl)-2-oxoethyl)-2-(2,6-dioxopiperidin-3-yl)-6,7-dihydropyrrolo[3,4-f]isoindole-1,3(2H,5H)-dione] |
